Assays:
RhoA = assay: GTP-Rho pull-down assay in HEK 293T cell pellets; assay type: cell-based; details: 10 min, HEK 293T transfected with mouse Gpr56
Description: HEK 293T cells were transiently transfected with mouse Gpr56 cDNA. Twenty-four hours after transfection, the cells were subject to serum starvation for 36 hr followed by the addition of recombinant TG2 250 nM with/without recombinant laminin-111 12.5 nM, or acetic acid as control for 10 min. The conditioned media were harvested, filtered, and concentrated as previously described. Equal volumes of the concentrated media were used for Western blot (Luo et al., PLOS One 9, e100043, 2014), while the cell pellets were used for GTP-Rho pull-down assay.
The corpus callosums (CCs) were dissected under a Leica stereo microscope (MZ 6; Leica™ Pte Ltd.), followed by washes in PBS and lysis in ice-cold RIPA buffer (1% Nonidet P-40, 50 mM Tris pH 7.6, 120 mM NaCl, 1 mM EDTA) containing protease inhibitor cocktail set 1 (Calbiochem). The lysates were cleared of insoluble materials by centrifugation at 16,000×g for 10 min at 4° C. Protein concentration was determined by a Bio-Rad protein assay method (Bio-Rad) according to the manufacturer's protocol, and equal amounts of protein were used for SDS-PAGE and western blot analysis. The GTP-Rho pull-down assay was performed as previously described (Luo et al., Proc Natl Acad Sci USA 108, 12925-12930, 2011). […] Bound Rho proteins were eluted by Laemmli sample buffer and detected by western blot using mouse monoclonal anti-RhoA antibody (Cytoskeleton).

GPR56^N = target: T1, GPR56^N (Mus musculus, UniProt Q8K209); assay: In vitro biotinylation/proteomics pull-down from mixed glial cell lysate with mass spectrometry; details: peptide sequences specific for binding to GPR56^N
T1 construct: Using the soluble N-terminal fragment of GPR56 (GPR56^N); made in house
T1 sequence (Q8K209 26-382 limits assumed): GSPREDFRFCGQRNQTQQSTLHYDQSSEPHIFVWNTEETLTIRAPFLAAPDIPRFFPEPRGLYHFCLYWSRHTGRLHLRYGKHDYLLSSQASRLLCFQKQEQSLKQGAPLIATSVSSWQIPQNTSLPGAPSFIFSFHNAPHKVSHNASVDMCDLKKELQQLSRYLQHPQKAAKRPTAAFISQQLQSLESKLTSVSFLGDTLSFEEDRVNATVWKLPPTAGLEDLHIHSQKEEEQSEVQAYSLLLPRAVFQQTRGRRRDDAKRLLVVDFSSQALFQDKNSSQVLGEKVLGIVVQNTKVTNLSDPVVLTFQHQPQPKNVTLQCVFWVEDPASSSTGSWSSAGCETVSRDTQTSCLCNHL
Excerpt: To identify the ligand of GPR56 in OPCs, an in vitro biotinylation/proteomics approach was employed using single-step capture on streptavidin beads to purify the binding partner(s) of GPR56 (FIGS. 2A-2B). Proteins with more than five identified tryptic peptides in the Mass Spectrometry (MS) output from three independent experiments are listed at Table 1.
(§1) GPR56^N and GPR56^Ndel fusions proteins with either mFc or hFc tag were generated as previously described (Luo et al. Proc Natl Acad Sci USA 108, 12925-12930, 2011). BirA enzyme was used to in vitro biotinylate GPR56^N-mFc-biotag protein as previously described (De Laurenzi and Melino Mol Cell Biol 21, 148-155, 2001). Mixed glial cell lysate was incubated with biotinylated GPR56^N protein in lysis buffer [20 mM Hepes (pH 7.3), 150 mM NaCl, and 5 mM MgCl2] with protein inhibitor mixture (Roche Molecular Biochemicals) and 1% Brij 96 (Fluka). Streptavidin beads (Sigma) were used to affinity purify immunocomplexes. GPR56-associated proteins were eluted in 2×SDS loading buffer, subjected to SDS/PAGE. The whole lane was used for MS at the Taplin Biological Mass Spectrometry at Havard Medical School. MS data were searched against the mouse International Protein Index (IPI mouse 339) database using the protein identification software Mascot (v2.2.04, Matrix Sciences) (Luo et al. Proc Natl Acad Sci USA 108, 12925-12930, 2011).
as §1, with “al.,” for “al.”, “(Stacey et al., J” for “(De Laurenzi and Melino Mol Cell”, “Chem 277, 29283-29293, 2002).” for “21, 148-155, 2001).”, “(20” for “[20”, “[pH 7.3],” for “(pH 7.3),”, “MgCl2)” for “MgCl2]”

[1] = tested on: oligodendrocyte precursors (OPCs); assay: OPC proliferation in culture with recombinant TGM2, BrdU/PDGFRα double immunostaining; assay type: cell-based, mouse; details: 2 nM recombinant TGM2, 24 hrs
Description: FIG. 14A depicts a TGM2 western blot on acutely isolated microglia, OPCs, astrocytes and oligodendrocytes. β-actin was used as loading control. FIG. 14B depicts representative images of BrdU (white) and PDGFRα (light gray) double immunostaining on OPC cultured for 24 hrs in proliferation media in the presence and absence of 2 nM recombinant TGM2. Scale bar, 100 μm. FIG. 14C depicts quantification of the percentage of BrdU^+ of total PDGFRα^+ OPCs. *P=0.0492, paired t-test, N=3 per genotype. Error bars are means±s.e.m.
To investigate whether TGM2 directly regulates OPC proliferation in a GPR56-dependent manner, OPCs derived from P5 Gpr56^+/− or Gpr56^−/− pups were cultured in the presence or absence of human recombinant TGM2 (FIGS. 15A and 15B) with the presence of BrdU. The cells were double immunostained for PDGFRα and BrdU (FIG. 14B).

Question: Which results are given for Transglutaminase 2 [TG2]?
Answer: Relative level of GTP-RhoA to total RhoA (RhoA; TG2 250 nM alone vs control): n.s.; Relative level of GTP-RhoA to total RhoA (RhoA; TG2 250 nM with laminin-111 12.5 nM): activating RhoA downstream signaling; Peptide Number (Exp1) (GPR56^N; experiment 1): 19; Peptide Number (Exp2) (GPR56^N; experiment 2): 20; Peptide Number (Exp3) (GPR56^N; experiment 3): 17; OPC proliferation (percentage of BrdU+ of total PDGFRα+ OPCs) ([1]; proliferation media, OPCs printed as Gpr56−/− (first mention; cultures were Gpr56+/− or Gpr56−/−)): significantly increased; OPC proliferation (percentage of BrdU+ of total PDGFRα+ OPCs) ([1]; Gpr56−/− OPCs (second mention)): attenuated

Reference: patent US12358959B2, “Compositions and methods for oligodendrocyte development” (CHILDREN'S MEDICAL CENTER CORPORATION, priority 2016, dated 2025)
